From article PMC9133015 (Nature Communications, 2022)
Values joined by “and” are separate entries in the source; they are usually repeats but may differ in a detail not shown here. Equal values may be shown once.

What was measured:
Assay in all cases: Kinase inhibitor specificity profiling (Reaction Biology Corporation)
Type in all cases: biochemical
Parameters in all cases: % Enzyme Activity (relative to DMSO controls): concentration or dose not given beside the values
[1] = target: T1, panel of 370 protein kinases (Homo sapiens, UniProt Q96KB5); conditions: 2 h, kinase PBK/TOPK; read-out: % Enzyme Activity (relative to DMSO controls)
T1 construct: purchased Reaction Biology Corporation (assay service)

[2] = target: T2, panel of 370 protein kinases (Homo sapiens, UniProt P51956); conditions: 2 h, kinase NEK3; read-out: % Enzyme Activity (relative to DMSO controls)
T2 construct: purchased Reaction Biology Corporation (assay service)

[3] = target: T3, panel of 370 protein kinases (Homo sapiens, UniProt O43781); conditions: 2 h, kinase DYRK3; read-out: % Enzyme Activity (relative to DMSO controls)
T3 construct: purchased Reaction Biology Corporation (assay service)

[4] = target: T4, panel of 370 protein kinases (Homo sapiens, UniProt P11309); conditions: 2 h, kinase PIM1; read-out: % Enzyme Activity (relative to DMSO controls)
T4 construct: purchased Reaction Biology Corporation (assay service)

[5] = target: T5, panel of 370 protein kinases (Homo sapiens, UniProt Q96GX5); conditions: kinase MASTL
T5 construct: purchased Reaction Biology Corporation (assay service)

[6] = target: T6, panel of 370 protein kinases (Homo sapiens, UniProt Q9Y6M4); conditions: kinase CK1G3
T6 construct: purchased Reaction Biology Corporation (assay service)

[7] = target: T7, panel of 370 protein kinases (Homo sapiens, UniProt O95819); conditions: 2 h, kinase HGK/MAP4K4; read-out: % Enzyme Activity (relative to DMSO controls)
T7 construct: purchased Reaction Biology Corporation (assay service)

[8] = target: T8, panel of 370 protein kinases (Homo sapiens, UniProt Q16620); conditions: 2 h, kinase TRKB; read-out: % Enzyme Activity (relative to DMSO controls)
T8 construct: purchased Reaction Biology Corporation (assay service)

[9] = target: T9, panel of 370 protein kinases (Homo sapiens, UniProt P07948); conditions: 2 h, kinase LYN; read-out: % Enzyme Activity (relative to DMSO controls)
T9 construct: purchased Reaction Biology Corporation (assay service)

[10] = target: T10, panel of 370 protein kinases (Homo sapiens, UniProt P29320); conditions: 2 h, kinase EPHA3; read-out: % Enzyme Activity (relative to DMSO controls)
T10 construct: purchased Reaction Biology Corporation (assay service)

[11] = target: T11, panel of 370 protein kinases (Homo sapiens, UniProt P80192); conditions: 2 h, kinase MLK1/MAP3K9; read-out: % Enzyme Activity (relative to DMSO controls)
T11 construct: purchased Reaction Biology Corporation (assay service)

[12] = target: T12, panel of 370 protein kinases (Homo sapiens, UniProt O14733); conditions: kinase MKK7
T12 construct: purchased Reaction Biology Corporation (assay service)

[13] = target: T13, panel of 370 protein kinases (Homo sapiens, UniProt Q13882); conditions: 2 h, kinase BRK; read-out: % Enzyme Activity (relative to DMSO controls)
T13 construct: purchased Reaction Biology Corporation (assay service)

[14] = target: T14, panel of 370 protein kinases (Homo sapiens, UniProt O75116); conditions: 2 h, kinase ROCK2; read-out: % Enzyme Activity (relative to DMSO controls)
T14 construct: purchased Reaction Biology Corporation (assay service)

[15] = target: T15, panel of 370 protein kinases (Homo sapiens, UniProt Q13464); conditions: 2 h, kinase ROCK1; read-out: % Enzyme Activity (relative to DMSO controls)
T15 construct: purchased Reaction Biology Corporation (assay service)

[16] = target: T16, panel of 370 protein kinases (Homo sapiens, UniProt P27361); conditions: 2 h, kinase ERK1; read-out: % Enzyme Activity (relative to DMSO controls)
T16 construct: purchased Reaction Biology Corporation (assay service)

[17] = target: T17, panel of 370 protein kinases (Homo sapiens, UniProt P50613); conditions: 2 h, kinase CDK7/cyclin H; read-out: % Enzyme Activity (relative to DMSO controls)
T17 construct: purchased Reaction Biology Corporation (assay service)

[18] = target: T18, panel of 370 protein kinases (Homo sapiens, UniProt Q6P2M8); conditions: kinase CAMK1b
T18 construct: purchased Reaction Biology Corporation (assay service)

[19] = target: T19, panel of 370 protein kinases (Homo sapiens, UniProt Q04759); conditions: 2 h, kinase PKCtheta; read-out: % Enzyme Activity (relative to DMSO controls)
T19 construct: purchased Reaction Biology Corporation (assay service)

[20] = target: T20, panel of 370 protein kinases (Homo sapiens, UniProt P49840); conditions: 2 h, kinase GSK3a; read-out: % Enzyme Activity (relative to DMSO controls)
T20 construct: purchased Reaction Biology Corporation (assay service)

[21] = target: T21, panel of 370 protein kinases (Homo sapiens, UniProt Q96RG2); conditions: 2 h, kinase PASK; read-out: % Enzyme Activity (relative to DMSO controls)
T21 construct: purchased Reaction Biology Corporation (assay service)

[22] = target: T22, panel of 370 protein kinases (Homo sapiens, UniProt P31749); conditions: 2 h, kinase AKT1; read-out: % Enzyme Activity (relative to DMSO controls)
T22 construct: purchased Reaction Biology Corporation (assay service)

T6 sequence (Q9Y6M4 whole entry): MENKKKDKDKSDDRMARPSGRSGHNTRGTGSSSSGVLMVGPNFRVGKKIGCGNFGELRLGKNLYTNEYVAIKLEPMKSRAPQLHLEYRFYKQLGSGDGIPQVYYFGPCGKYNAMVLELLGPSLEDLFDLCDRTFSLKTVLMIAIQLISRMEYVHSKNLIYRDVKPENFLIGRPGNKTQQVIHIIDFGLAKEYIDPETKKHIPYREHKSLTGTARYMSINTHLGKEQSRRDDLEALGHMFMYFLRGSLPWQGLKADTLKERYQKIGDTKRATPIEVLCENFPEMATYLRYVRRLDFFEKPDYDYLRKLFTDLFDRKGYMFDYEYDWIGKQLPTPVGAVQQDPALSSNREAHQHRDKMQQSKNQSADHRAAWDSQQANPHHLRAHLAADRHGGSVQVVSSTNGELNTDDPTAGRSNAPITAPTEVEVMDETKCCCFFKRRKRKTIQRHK
T5 sequence (Q96GX5 whole entry): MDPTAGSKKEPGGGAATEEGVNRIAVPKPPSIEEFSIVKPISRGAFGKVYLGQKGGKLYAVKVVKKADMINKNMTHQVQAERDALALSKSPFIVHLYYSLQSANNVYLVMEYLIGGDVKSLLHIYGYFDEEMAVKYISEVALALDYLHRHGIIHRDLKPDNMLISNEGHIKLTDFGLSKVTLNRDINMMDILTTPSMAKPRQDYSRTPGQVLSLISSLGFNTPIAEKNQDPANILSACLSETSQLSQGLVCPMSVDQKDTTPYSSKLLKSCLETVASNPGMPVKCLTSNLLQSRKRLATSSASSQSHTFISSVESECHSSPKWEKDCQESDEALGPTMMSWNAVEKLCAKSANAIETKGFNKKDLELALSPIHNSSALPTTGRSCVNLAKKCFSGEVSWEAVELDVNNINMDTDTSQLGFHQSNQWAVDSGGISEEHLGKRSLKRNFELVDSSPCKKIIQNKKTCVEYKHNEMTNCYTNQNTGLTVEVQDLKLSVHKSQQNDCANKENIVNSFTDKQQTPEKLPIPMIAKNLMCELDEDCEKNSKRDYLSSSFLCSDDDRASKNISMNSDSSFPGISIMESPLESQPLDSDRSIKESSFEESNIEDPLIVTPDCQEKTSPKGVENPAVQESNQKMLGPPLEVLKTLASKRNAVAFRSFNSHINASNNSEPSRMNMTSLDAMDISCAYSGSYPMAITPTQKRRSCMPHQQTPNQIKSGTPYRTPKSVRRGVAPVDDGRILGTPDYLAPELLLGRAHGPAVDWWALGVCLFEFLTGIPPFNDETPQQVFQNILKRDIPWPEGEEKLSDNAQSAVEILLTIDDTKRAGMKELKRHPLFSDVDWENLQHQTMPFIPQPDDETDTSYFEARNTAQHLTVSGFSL
T12 sequence (O14733 whole entry): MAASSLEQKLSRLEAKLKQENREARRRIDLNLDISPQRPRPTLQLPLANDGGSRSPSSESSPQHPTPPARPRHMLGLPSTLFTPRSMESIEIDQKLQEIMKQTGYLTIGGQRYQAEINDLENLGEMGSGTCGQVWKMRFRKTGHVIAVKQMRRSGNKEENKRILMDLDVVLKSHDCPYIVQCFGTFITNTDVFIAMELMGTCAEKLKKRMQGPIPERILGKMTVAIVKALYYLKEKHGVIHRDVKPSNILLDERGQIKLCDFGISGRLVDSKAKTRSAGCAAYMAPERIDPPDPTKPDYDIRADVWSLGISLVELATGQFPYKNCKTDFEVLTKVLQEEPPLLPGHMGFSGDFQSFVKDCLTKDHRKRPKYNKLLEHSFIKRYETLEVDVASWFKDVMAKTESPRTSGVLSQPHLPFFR
T18 sequence (Q6P2M8 whole entry): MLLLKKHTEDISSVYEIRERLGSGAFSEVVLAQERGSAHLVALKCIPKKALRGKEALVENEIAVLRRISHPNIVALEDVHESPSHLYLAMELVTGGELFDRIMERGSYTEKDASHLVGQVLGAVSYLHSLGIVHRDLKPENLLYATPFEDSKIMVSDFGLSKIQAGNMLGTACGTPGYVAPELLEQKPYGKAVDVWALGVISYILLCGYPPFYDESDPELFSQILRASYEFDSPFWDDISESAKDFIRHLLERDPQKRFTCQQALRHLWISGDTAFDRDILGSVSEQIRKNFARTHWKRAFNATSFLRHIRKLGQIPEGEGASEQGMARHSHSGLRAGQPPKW
T16 sequence (P27361 whole entry): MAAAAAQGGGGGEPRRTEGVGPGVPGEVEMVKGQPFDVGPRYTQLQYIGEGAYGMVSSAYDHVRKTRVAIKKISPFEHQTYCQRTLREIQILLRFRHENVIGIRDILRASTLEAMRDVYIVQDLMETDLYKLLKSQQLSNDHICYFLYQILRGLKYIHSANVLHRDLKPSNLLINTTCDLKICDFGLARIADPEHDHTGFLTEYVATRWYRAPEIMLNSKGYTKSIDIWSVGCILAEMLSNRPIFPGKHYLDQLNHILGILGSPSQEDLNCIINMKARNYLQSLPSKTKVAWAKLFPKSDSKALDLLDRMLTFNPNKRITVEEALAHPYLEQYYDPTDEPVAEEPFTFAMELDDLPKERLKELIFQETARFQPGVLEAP
T1 sequence (Q96KB5 whole entry): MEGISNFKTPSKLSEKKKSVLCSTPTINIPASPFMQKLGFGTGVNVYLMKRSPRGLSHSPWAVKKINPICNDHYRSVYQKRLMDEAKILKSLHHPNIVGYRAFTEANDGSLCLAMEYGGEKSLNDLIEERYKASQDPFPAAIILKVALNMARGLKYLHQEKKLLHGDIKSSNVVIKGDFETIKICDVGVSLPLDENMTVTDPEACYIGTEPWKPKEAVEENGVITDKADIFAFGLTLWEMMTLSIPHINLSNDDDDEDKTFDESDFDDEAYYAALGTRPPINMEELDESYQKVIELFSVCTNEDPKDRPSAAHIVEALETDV
T8 sequence (Q16620 32-822): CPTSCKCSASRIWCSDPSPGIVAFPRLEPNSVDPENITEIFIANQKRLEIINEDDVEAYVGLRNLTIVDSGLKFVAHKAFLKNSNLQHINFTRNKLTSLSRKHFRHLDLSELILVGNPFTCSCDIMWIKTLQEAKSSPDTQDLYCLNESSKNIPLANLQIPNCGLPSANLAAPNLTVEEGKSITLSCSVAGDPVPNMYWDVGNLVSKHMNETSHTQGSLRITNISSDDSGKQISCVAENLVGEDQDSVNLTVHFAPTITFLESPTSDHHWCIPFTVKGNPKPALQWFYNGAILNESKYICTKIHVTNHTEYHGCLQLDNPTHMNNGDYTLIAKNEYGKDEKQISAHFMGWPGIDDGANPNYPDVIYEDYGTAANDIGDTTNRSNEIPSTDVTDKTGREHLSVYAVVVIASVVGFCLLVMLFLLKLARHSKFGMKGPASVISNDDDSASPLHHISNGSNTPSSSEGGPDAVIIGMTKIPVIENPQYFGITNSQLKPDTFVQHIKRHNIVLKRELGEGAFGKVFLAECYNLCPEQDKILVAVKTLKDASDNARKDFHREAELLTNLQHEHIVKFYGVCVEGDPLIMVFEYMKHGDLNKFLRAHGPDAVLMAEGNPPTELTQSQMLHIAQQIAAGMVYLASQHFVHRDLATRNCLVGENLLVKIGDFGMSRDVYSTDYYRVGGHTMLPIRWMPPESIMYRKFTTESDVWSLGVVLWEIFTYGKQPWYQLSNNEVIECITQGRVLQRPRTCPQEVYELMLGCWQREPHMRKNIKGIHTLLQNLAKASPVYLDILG
T20 sequence (P49840 whole entry): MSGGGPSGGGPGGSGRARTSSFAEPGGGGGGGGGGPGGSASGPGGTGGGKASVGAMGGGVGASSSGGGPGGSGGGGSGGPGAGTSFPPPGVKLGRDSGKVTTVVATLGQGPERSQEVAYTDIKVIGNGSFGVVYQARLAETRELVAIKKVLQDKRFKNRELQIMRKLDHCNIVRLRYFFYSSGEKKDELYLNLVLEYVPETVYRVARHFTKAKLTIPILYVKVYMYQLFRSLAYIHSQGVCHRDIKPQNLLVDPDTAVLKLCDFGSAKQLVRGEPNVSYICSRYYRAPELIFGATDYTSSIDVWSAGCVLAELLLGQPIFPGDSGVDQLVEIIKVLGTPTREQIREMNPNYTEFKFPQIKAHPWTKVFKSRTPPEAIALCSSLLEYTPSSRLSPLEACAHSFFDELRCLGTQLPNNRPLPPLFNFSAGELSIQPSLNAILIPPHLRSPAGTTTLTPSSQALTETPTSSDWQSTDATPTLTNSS
T17 sequence (P50613 whole entry): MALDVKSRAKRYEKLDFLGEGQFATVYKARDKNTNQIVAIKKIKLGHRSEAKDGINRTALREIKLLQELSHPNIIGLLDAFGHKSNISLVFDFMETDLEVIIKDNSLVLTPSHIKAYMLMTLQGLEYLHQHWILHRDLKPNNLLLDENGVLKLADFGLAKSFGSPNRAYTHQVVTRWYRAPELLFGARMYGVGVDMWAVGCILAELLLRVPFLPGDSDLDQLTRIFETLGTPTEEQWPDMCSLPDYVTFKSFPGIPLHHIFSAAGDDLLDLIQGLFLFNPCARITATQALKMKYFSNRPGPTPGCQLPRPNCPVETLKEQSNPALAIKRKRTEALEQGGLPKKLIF
T2 sequence (P51956 whole entry): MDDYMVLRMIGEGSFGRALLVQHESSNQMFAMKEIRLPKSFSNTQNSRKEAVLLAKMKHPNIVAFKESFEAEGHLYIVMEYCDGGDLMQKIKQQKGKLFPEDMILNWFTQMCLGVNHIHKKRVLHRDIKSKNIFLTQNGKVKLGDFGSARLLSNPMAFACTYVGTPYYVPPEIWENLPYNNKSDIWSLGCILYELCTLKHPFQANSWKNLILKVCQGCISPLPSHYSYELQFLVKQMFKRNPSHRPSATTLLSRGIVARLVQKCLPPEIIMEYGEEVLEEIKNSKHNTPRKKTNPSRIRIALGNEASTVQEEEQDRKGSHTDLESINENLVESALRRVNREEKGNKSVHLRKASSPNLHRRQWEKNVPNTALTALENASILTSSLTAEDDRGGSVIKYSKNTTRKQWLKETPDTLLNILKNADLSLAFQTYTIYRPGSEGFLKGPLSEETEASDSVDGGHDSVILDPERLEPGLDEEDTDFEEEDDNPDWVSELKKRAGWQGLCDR

CCN1CCN(C(=O)c2ccc(Nc3ncc(F)c(-c4ccc5nc(N(C)C)sc5c4)n3)nc2)CC1 [YK-2-69]
remaining activity at 1 µM [1]: 108%
remaining activity at 1 µM [2]: 73.1%
remaining activity at 1 µM [3]: 50.9%
remaining activity at 1 µM [4]: 77%
% Enzyme Activity (relative to DMSO controls) [5]: 100.08% and 99.24%
% Enzyme Activity (relative to DMSO controls) [6]: 114.34% and 110.21%
remaining activity at 1 µM [7]: 86.8%
remaining activity at 1 µM [8]: 88.6%
remaining activity at 1 µM [9]: 93.9%
remaining activity at 1 µM [10]: 95.2%
remaining activity at 1 µM [11]: 111%
% Enzyme Activity (relative to DMSO controls) [12]: 97.65% and 97.50%
remaining activity at 1 µM [13]: 97.7%
remaining activity at 1 µM [14]: 93.2%
remaining activity at 1 µM [15]: 92.8%
remaining activity at 1 µM [16]: 101%
remaining activity at 1 µM [17]: 99.1%
% Enzyme Activity (relative to DMSO controls) [18]: 94.21% and 93.36%
remaining activity at 1 µM [19]: 103%
remaining activity at 1 µM [20]: 42.3%
remaining activity at 1 µM [21]: 98.3%
remaining activity at 1 µM [22]: 98.3%
